# Measured values taken from PubChem BioAssay AID2060887 (Molecular Pharmacology Branch, DTP, NCI, 2025).
# Test system: 782815-120-R-J1-PDC complex spheroid viability
# Test: Anticancer human tumor 782815-120-R-J1-PDC patient-derived colon adenocarcinoma cell line growth inhibition [RAS]
# Conditions: for IC50: curve of first compound; for viability, T/C: stronger effect = lower value
# In short: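 Multi-cell-type spheroids: tumor cells plus HUVEC endothelial cells and mesenchymal stem cells. RAS-pathway inhibitors were combined with targeted agents, each dosed in half-log steps down from clinical Cmax, or from 10 microM when Cmax was unknown.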
# [1] = second compound 0.000949 µM, first compound 0.0316 µM
# [2] = second compound 0.000949 µM, first compound 0.1 µM
# [3] = second compound 0.000949 µM, first compound 0.316 µM
# [4] = second compound 0.000949 µM, first compound 1 µM
# [5] = second compound 0.003 µM, first compound 0.0316 µM
# [6] = second compound 0.003 µM, first compound 0.1 µM
# [7] = second compound 0.003 µM, first compound 0.316 µM
# [8] = second compound 0.003 µM, first compound 1 µM
# [9] = second compound 0.00949 µM, first compound 0.0316 µM
# [10] = second compound 0.00949 µM, first compound 0.1 µM
# [11] = second compound 0.00949 µM, first compound 0.316 µM
# [12] = second compound 0.00949 µM, first compound 1 µM
# [13] = second compound 0.03 µM, first compound 0.0316 µM
# [14] = second compound 0.03 µM, first compound 0.1 µM
# [15] = second compound 0.03 µM, first compound 0.316 µM
# [16] = second compound 0.03 µM, first compound 1 µM
# [17] = second compound 0.0949 µM, first compound 0.0316 µM
# [18] = second compound 0.0949 µM, first compound 0.1 µM
# [19] = second compound 0.0949 µM, first compound 0.316 µM
# [20] = second compound 0.0949 µM, first compound 1 µM
# [21] = second compound 0.3 µM, first compound 0.0316 µM
# [22] = second compound 0.3 µM, first compound 0.1 µM
# [23] = second compound 0.3 µM, first compound 0.316 µM
# [24] = second compound 0.3 µM, first compound 1 µM
# 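Further: spheroids exposed to compounds for 7 days before reading.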
# 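Wherever viability, T/C is given: 100% = DMSO vehicle control viability.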
smiles,measurement,setting,value
C=CC(=O)Nc1cc(Nc2nccc(-c3cn(C)c4ccccc34)n2)c(OC)cc1N(C)CCN(C)C + CCn1c(-c2cc(N3CCN(C)CC3)cnc2C(C)OC)c2c3cc(ccc31)-c1csc(n1)CC(NC(=O)C1CC1C)C(=O)N1CCCC(N1)C(=O)OCC(C)(C)C2,IC50,second compound 0.000949 µM,> 1 µM
same,IC50,second compound 0.003 µM,> 1 µM
same,IC50,second compound 0.00949 µM,< 0.00316 µM
same,IC50,second compound 0.03 µM,< 0.00316 µM
same,IC50,second compound 0.0949 µM,< 0.00316 µM
same,IC50,second compound 0.3 µM,< 0.00316 µM
same,"viability, T/C","second compound 0.000949 µM, first compound 0.00316 µM",71.5%
same,"viability, T/C","second compound 0.000949 µM, first compound 0.01 µM",71.2%
same,"viability, T/C",[1],79%
same,"viability, T/C",[2],74%
same,"viability, T/C",[3],76.4%
same,"viability, T/C",[4],68.6%
same,"viability, T/C","second compound 0.003 µM, first compound 0.00316 µM",59.3%
same,"viability, T/C","second compound 0.003 µM, first compound 0.01 µM",60.3%
same,"viability, T/C",[5],55.6%
same,"viability, T/C",[6],55.7%
same,"viability, T/C",[7],54.7%
same,"viability, T/C",[8],47.9%
same,"viability, T/C","second compound 0.00949 µM, first compound 0.00316 µM",31.2%
same,"viability, T/C","second compound 0.00949 µM, first compound 0.01 µM",35.6%
same,"viability, T/C",[9],34.2%
same,"viability, T/C",[10],29.6%
same,"viability, T/C",[11],28.3%
same,"viability, T/C",[12],27.8%
same,"viability, T/C","second compound 0.03 µM, first compound 0.00316 µM",17.8%
same,"viability, T/C","second compound 0.03 µM, first compound 0.01 µM",23.9%
same,"viability, T/C",[13],18.6%
same,"viability, T/C",[14],17.5%
same,"viability, T/C",[15],19.7%
same,"viability, T/C",[16],18.2%
same,"viability, T/C","second compound 0.0949 µM, first compound 0.00316 µM",16.1%
same,"viability, T/C","second compound 0.0949 µM, first compound 0.01 µM",16.6%
same,"viability, T/C",[17],14.8%
same,"viability, T/C",[18],16.2%
same,"viability, T/C",[19],15.1%
same,"viability, T/C",[20],19.5%
same,"viability, T/C","second compound 0.3 µM, first compound 0.00316 µM",17.5%
same,"viability, T/C","second compound 0.3 µM, first compound 0.01 µM",16.6%
same,"viability, T/C",[21],16.8%
same,"viability, T/C",[22],12.5%
same,"viability, T/C",[23],16.3%
same,"viability, T/C",[24],18.8%
Cc1nc(N2CCC3(CC2)COC(C)C3N)c(CO)nc1Sc1ccnc(N)c1Cl (centres undefined) + CCn1c(-c2cc(N3CCN(C)CC3)cnc2C(C)OC)c2c3cc(ccc31)-c1csc(n1)CC(NC(=O)C1CC1C)C(=O)N1CCCC(N1)C(=O)OCC(C)(C)C2,IC50,second compound 0.000949 µM,> 10 µM
same,IC50,second compound 0.003 µM,> 10 µM
same,IC50,second compound 0.00949 µM,< 0.0316 µM
same,IC50,second compound 0.03 µM,< 0.0316 µM
same,IC50,second compound 0.0949 µM,< 0.0316 µM
same,IC50,second compound 0.3 µM,< 0.0316 µM
same,"viability, T/C",[1],73.5%
same,"viability, T/C",[2],79.3%
same,"viability, T/C",[3],74.7%
same,"viability, T/C",[4],73%
same,"viability, T/C","second compound 0.000949 µM, first compound 3.16 µM",69.4%
same,"viability, T/C","second compound 0.000949 µM, first compound 10 µM",69.9%
same,"viability, T/C",[5],58.5%
same,"viability, T/C",[6],54.6%
same,"viability, T/C",[7],56%
same,"viability, T/C",[8],49%
same,"viability, T/C","second compound 0.003 µM, first compound 3.16 µM",58.4%
same,"viability, T/C","second compound 0.003 µM, first compound 10 µM",49%
same,"viability, T/C",[9],29.1%
same,"viability, T/C",[10],28.2%
same,"viability, T/C",[11],24.1%
same,"viability, T/C",[12],32.1%
same,"viability, T/C","second compound 0.00949 µM, first compound 3.16 µM",30.3%
same,"viability, T/C","second compound 0.00949 µM, first compound 10 µM",28.3%
same,"viability, T/C",[13],17.8%
same,"viability, T/C",[14],19%
same,"viability, T/C",[15],18.6%
same,"viability, T/C",[16],18.5%
same,"viability, T/C","second compound 0.03 µM, first compound 3.16 µM",22.9%
same,"viability, T/C","second compound 0.03 µM, first compound 10 µM",19.3%
same,"viability, T/C",[17],15.9%
same,"viability, T/C",[18],17%
same,"viability, T/C",[19],14.5%
same,"viability, T/C",[20],15.5%
same,"viability, T/C","second compound 0.0949 µM, first compound 3.16 µM",17.3%
same,"viability, T/C","second compound 0.0949 µM, first compound 10 µM",15.4%
same,"viability, T/C",[21],14.3%
same,"viability, T/C",[22],13.8%
same,"viability, T/C",[23],15.9%
same,"viability, T/C",[24],16.4%
same,"viability, T/C","second compound 0.3 µM, first compound 3.16 µM",21.3%
same,"viability, T/C","second compound 0.3 µM, first compound 10 µM",18.6%
